Experimental data from patent US20150173369A1, “S[…] CONTROL AND IMPROVED CROP TOLERANCE FROM COMBINATIONS OF 2,4-D-CHOLINE, GLYPHOSATE, AND G[…] 2,4-D-, GLYPHOSATE- AND GLUFOSINATE-TOLERANT SOYBEANS, CORN, COTTON AND OTHER CROP AREAS” (Dow AgroSciences LLC, priority 2013, published 2015).
Several values for one entry are separate records, joined by “and”; a condition that tells them apart may be missing. Equal values may be shown once.

Key:
[1] = tested on: Ambrosia trifida L. (giant ragweed, AMBTR); experiment: Field trials, post-emergence weed control (% visual control); format: in vivo; settings: 542 g ae/ha alone
Procedure: (§1) Field trials were conducted under agricultural field conditions in multiple states in the United States, including but not limited to Arkansas, Iowa, Illinois, Indiana, Kansas, Minnesota, Mississippi, Missouri, New York, Tennessee and Wisconsin. Trials were established as RCB (randomized complete block) design, with 3-4 replicates per treatment, and plot sizes varying from 5-10 feet (ft) wide by 12-30 ft long. Treatments were applied with small plot backpack sprayers, using pressurized carbon dioxide (CO2) as propellant. Pressure varied from 17-52 pounds per square inch (psi), with spray tips typically of a Flat Fan type applying water diluent at 15 gallons per acre (GPA). Boom sizes varied from 5-11 ft in width. Treatments were applied to soybean, cotton, corn or fallow crop land. Weed sizes varied, but all treatments were applied as post-emergence treatments to weeds from 2 leaf to 2 tiller growth stages varying from 3 to 17 inches in height. The weed spectrum included, but was not limited to, Amaranthus palmeri S. Wats. (Palmer amaranth, AMAPA), Ambrosia trifida L. (giant ragweed, AMBTR), Conyza canadensis (L.) Cronq. (horseweed, ERICA) and Salsola tragus L. (Russian thistle, SASKR).
(§2) Glyphosate-, 2,4-D- and glufosinate-tolerant soybeans, corn or cotton comprising genes for tolerance for each herbicide as described above were used in all trials either as a breeding stack of one to three herbicide-tolerant events or as a molecular stack where all three herbicide tolerance traits were transformed into a single event.
(§3) The 2,4-D-choline salt plus glyphosate premix formulation was a 400 g ae/L SL containing 195 g ae/L 2,4-D-choline salt and 205 g ae/L glyphosate-dimethylammonium (DMA) salt. […] All treatments were mixed in water at appropriate formulated product rates to achieve the desired rates as shown based on a unit area of application (hectare). Treatments were rated at 1 to 28 days after application (DAA) as compared to the untreated control plants. The trial sites had naturally occurring populations of weeds. The treated plots and control plots were rated blind at various intervals after application.
(§4) Colby's equation was used to determine the herbicidal effects expected from the mixtures (Colby, S. R. Calculation of the synergistic and antagonistic response of herbicide combinations. Weeds 1967, 15, 20-22). A t-test (alpha=0.05) between Colby predictions and observed combinations was used to test for significant differences indicating synergy or antagonism using replicate data. The results presented in the Tables were significant according to the described criteria. The following equation was used to calculate the expected activity of mixtures containing three active ingredients, A. B, and C: […]

[2] = tested on: Amaranthus palmeri S. Wats. (Palmer amaranth, AMAPA); experiment: as above; format: in vivo; settings: 542 g ae/ha alone
Procedure: as §1, §2, §3, §4

[3] = tested on: Salsola tragus L. (Russian thistle, SASKR); experiment: as above; format: in vivo; settings: 542 g ae/ha alone
Procedure: as §1, §2, §3, §4

[4] = tested on: Conyza canadensis (L.) Cronq. (horseweed, ERICA); experiment: as above; format: in vivo; settings: ERICA 14DAA; 542 g ae/ha alone
Procedure: as §1, §2, §3, §4

AAD12 Soybean (GLXMA) = experiment: Field trials, crop tolerance (% visual crop injury); format: in vivo, Glycine max L.
Procedure: as §1, §2, §3
as §4, with “The results presented in the Tables were significant according to the described criteria.” left out

Q: `CP(=O)(O)CCC(N)C(=O)O` (centres unmarked) [Glufosinate-Ammonium, ammonium (3-amino-3-carboxypropyl)(methyl)phosphinate] was tested. Which “Mean % Weed Control” value ([1]; AMBTR 8DAA) did it give?
A: 56.7%

Q: What about the “Mean % Weed Control” value ([1]; AMBTR 21DAA) of the same compound?
A: 36.7%

Q: And the “Mean % Weed Control” value ([2]; AMAPA 7DAA)?
A: 67.5%

Q: And the “Mean % Weed Control” value ([2]; AMAPA 8DAA)?
A: 32.5%

Q: What about the “Mean % Weed Control” value ([2]; AMAPA 11DAA) of the same compound?
A: 33.8%

Q: What about the “Mean % Weed Control” value ([2]; AMAPA 13DAA) of the same compound?
A: 31.3%

Q: And the “Mean % Weed Control” value ([2]; AMAPA 14DAA)?
A: 10.0%

Q: And the “Mean % Weed Control” value ([2]; AMAPA 16DAA)?
A: 36.7%

Q: What about the “Mean % Weed Control” value ([2]; AMAPA 21DAA) of the same compound?
A: 38.8%

Q: And the “Mean % Weed Control” value ([2]; AMAPA 23DAA)?
A: 21.7%

Q: What about the “Mean % Weed Control” value ([3]; SASKR 21DAA) of the same compound?
A: 13.8%

Q: And the “Mean % Weed Control” value ([3]; SASKR 28DAA)?
A: 15%

Q: And the “Mean % Weed Control” value [4]?
A: 76.8%

Q: What about the “Mean % visual crop injury” value (AAD12 Soybean (GLXMA); GLXMA 1DAA, 542 g ae/ha alone) of the same compound?
A: 12.5%

Q: What about the “Mean % visual crop injury” value (AAD12 Soybean (GLXMA); GLXMA 1DAA, 822 g ae/ha alone) of the same compound?
A: 16.3%

Q: What about the “Mean % visual crop injury” value (AAD12 Soybean (GLXMA); GLXMA 1DAA, 1084 g ae/ha alone) of the same compound?
A: 20.0%

Q: What about the “Mean % visual crop injury” value (AAD12 Soybean (GLXMA); GLXMA 2DAA, 822 g ae/ha alone) of the same compound?
A: 9.5% and 12.3% and 11.3% and 8.3% and 7.5% and 7.3% and 13.8%

Q: What about the “Mean % visual crop injury” value (AAD12 Soybean (GLXMA); GLXMA 2DAA, 1084 g ae/ha alone) of the same compound?
A: 13.0% and 15.5% and 11.3% and 11.8% and 8.5% and 7.8% and 7.5%

Q: And the “Mean % visual crop injury” value (AAD12 Soybean (GLXMA); GLXMA 4DAA, 542 g ae/ha alone)?
A: 3.8% and 2.8% and 6.3%

Q: What about the “Mean % visual crop injury” value (AAD12 Soybean (GLXMA); GLXMA 5DAA, 542 g ae/ha alone) of the same compound?
A: 4.0%

Q: What about the “Mean % visual crop injury” value (AAD12 Soybean (GLXMA); GLXMA 5DAA, 1084 g ae/ha alone) of the same compound?
A: 7.8%

Q: And the “Mean % visual crop injury” value (AAD12 Soybean (GLXMA); GLXMA 6DAA, 823 g ae/ha alone)?
A: 33.3%

Q: And the “Mean % visual crop injury” value (AAD12 Soybean (GLXMA); GLXMA 7DAA, 542 g ae/ha alone)?
A: 3.3%

Q: What about the “Mean % visual crop injury” value (AAD12 Soybean (GLXMA); GLXMA 8DAA, 542 g ae/ha alone) of the same compound?
A: 2.8%

Q: What about the “Mean % visual crop injury” value (AAD12 Soybean (GLXMA); GLXMA 9DAA, 822 g ae/ha alone) of the same compound?
A: 5.5%

Q: And the “Mean % visual crop injury” value (AAD12 Soybean (GLXMA); GLXMA 9DAA, 1084 g ae/ha alone)?
A: 6.0%

Q: And the “Mean % visual crop injury” value (AAD12 Soybean (GLXMA); GLXMA 10DAA, 1084 g ae/ha alone)?
A: 8.5% and 10.0%

Q: And the “Mean % visual crop injury” value (AAD12 Soybean (GLXMA); GLXMA 13DAA, 823 g ae/ha alone)?
A: 10.7%

Q: What about the “Mean % visual crop injury” value (AAD12 Soybean (GLXMA); GLXMA 13DAA, 1084 g ae/ha alone) of the same compound?
A: 8.5%

Q: What about the “Mean % visual crop injury” value (AAD12 Soybean (GLXMA); GLXMA 14DAA, 542 g ae/ha alone) of the same compound?
A: 5.8% and 12.5%

Q: And the “Mean % visual crop injury” value (AAD12 Soybean (GLXMA); GLXMA 15DAA, 542 g ae/ha alone)?
A: 4.5%

Q: What about the “Mean % visual crop injury” value (AAD12 Soybean (GLXMA); GLXMA 15DAA, 822 g ae/ha alone) of the same compound?
A: 2.3% and 5.0%

Q: And the “Mean % visual crop injury” value (AAD12 Soybean (GLXMA); GLXMA 15DAA, 1084 g ae/ha alone)?
A: 5.5% and 8.5% and 2.3%

Q: What about the “Mean % visual crop injury” value (AAD12 Soybean (GLXMA); GLXMA 16DAA, 542 g ae/ha alone) of the same compound?
A: 3.0%

Q: What about the “Mean % visual crop injury” value (AAD12 Soybean (GLXMA); GLXMA 16DAA, 822 g ae/ha alone) of the same compound?
A: 4.0%

Q: And the “Mean % visual crop injury” value (AAD12 Soybean (GLXMA); GLXMA 16DAA, 1084 g ae/ha alone)?
A: 5.0% and 5.5%

Q: And the “Mean % visual crop injury” value (AAD12 Soybean (GLXMA); GLXMA 21DAA, 542 g ae/ha alone)?
A: 4.0%

Q: What about the “Mean % visual crop injury” value (AAD12 Soybean (GLXMA); GLXMA 21DAA, 822 g ae/ha alone) of the same compound?
A: 5.0%

Q: What about the “Mean % visual crop injury” value (AAD12 Soybean (GLXMA); GLXMA 21DAA, 1084 g ae/ha alone) of the same compound?
A: 6.0%

Q: What about the “Mean % visual crop injury” value (AAD12 Soybean (GLXMA); table title: % Visual Necrosis, GLXMA 2DAA, 1084 g ae/ha alone) of the same compound?
A: 25.0%

Q: What about the “Mean % visual crop injury” value (AAD12 Soybean (GLXMA); table title: % Visual Necrosis, GLXMA 3DAA, 542 g ae/ha alone) of the same compound?
A: 0.0%

Q: And the “Mean % visual crop injury” value (AAD12 Soybean (GLXMA); table title: % Visual Necrosis, GLXMA 3DAA, 822 g ae/ha alone)?
A: 0.8%

Q: And the “Mean % visual crop injury” value (AAD12 Soybean (GLXMA); table title: % Visual Necrosis, GLXMA 3DAA, 1084 g ae/ha alone)?
A: 3.0% and 8.5% and 1.5% and 1.3%

Q: And the “Mean % visual crop injury” value (AAD12 Soybean (GLXMA); table title: % Visual Necrosis, GLXMA 5DAA, 542 g ae/ha alone)?
A: 2.8%

Q: And the “Mean % visual crop injury” value (AAD12 Soybean (GLXMA); table title: % Visual Necrosis, GLXMA 7DAA, 542 g ae/ha alone)?
A: 0.5% and 0.3%

Q: And the “Mean % visual crop injury” value (AAD12 Soybean (GLXMA); table title: % Visual Necrosis, GLXMA 7DAA, 822 g ae/ha alone)?
A: 0.8% and 0.0% and 10.0% and 1.0% and 1.3%

Q: And the “Mean % visual crop injury” value (AAD12 Soybean (GLXMA); table title: % Visual Necrosis, GLXMA 7DAA, 1084 g ae/ha alone)?
A: 3.3% and 1.3% and 10.0% and 2.0% and 2.3%

Q: What about the “Mean % visual crop injury” value (AAD12 Soybean (GLXMA); table title: % Visual Necrosis, GLXMA 8DAA, 822 g ae/ha alone) of the same compound?
A: 7.5%

Q: And the “Mean % visual crop injury” value (AAD12 Soybean (GLXMA); table title: % Visual Necrosis, GLXMA 8DAA, 1084 g ae/ha alone)?
A: 10.0% and 12.5% and 6.5%

Q: What about the “Mean % visual crop injury” value (AAD12 Soybean (GLXMA); table title: % Visual Necrosis, GLXMA 9DAA, 822 g ae/ha alone) of the same compound?
A: 6.0%

Q: What about the “Mean % visual crop injury” value (AAD12 Soybean (GLXMA); table title: % Visual Necrosis, GLXMA 10DAA, 1084 g ae/ha alone) of the same compound?
A: 2.3%

Q: What about the “Mean % visual crop injury” value (AAD12 Soybean (GLXMA); table title: % Visual Necrosis, GLXMA 14DAA, 822 g ae/ha alone) of the same compound?
A: 0.0% and 1.0%

Q: What about the “Mean % visual crop injury” value (AAD12 Soybean (GLXMA); table title: % Visual Necrosis, GLXMA 14DAA, 1084 g ae/ha alone) of the same compound?
A: 5.0% and 2.0%

Q: What about the “Mean % visual crop injury” value (AAD12 Soybean (GLXMA); table title: % Visual Necrosis, GLXMA 16DAA, 542 g ae/ha alone) of the same compound?
A: 3.0%

Q: And the “Mean % visual crop injury” value (AAD12 Soybean (GLXMA); table title: % Visual Necrosis, GLXMA 16DAA, 822 g ae/ha alone)?
A: 5.0%

Q: And the “Mean % visual crop injury” value (AAD12 Soybean (GLXMA); table title: % Visual Necrosis, GLXMA 16DAA, 1084 g ae/ha alone)?
A: 1.8%
